In US20090304744A1, “METHODS OF ENHANCING IMMUNE RESPONSE IN THE INTRADERMAL COMPARTMENT AND COMPOUNDS USEFUL THEREOF” (priority 2003, published 2009):
Where two headings read alike, the source gives them in different places.

How the values were obtained:
[1] = tested on: influenza antigen (Influenza APR834); format: in vivo, Balb/c mice; conditions: ID; for Trend in immune response as indicated by ELISA signal (1:123 serum screening dilution): mice
[2] = tested on: Influenza A/Panama/2007/99 (H3N2); assay: HAI assay after ID microneedle immunization of rats with FLUZONE +/- Tween 80; format: in vivo, Brown Norway rats; conditions: for % Seroconversion (HAI Titre ≧ 10) / % Seroprotection (HAI Titre ≧ 40): day 21, Tween 80 at 5% where added
Protocol: Measurement of HA specific Antibody Titer by HAI: Sera were collected and used as test samples. Fresh cRBC reagent was prepared daily. Sodium Chloride solution (0.9%) was added to wells of a Falcon® Non-Tissue Culture Treated Plate, 96 well, U-Bottom with Low Evaporation Lid. Viral lysate stock (8 HA/50 μl) was added to wells. Appropriate volume of test serum was added to a single row or column of “start wells,” and a serial dilution was performed by transferring 50 μl of the serum dilution from the “start wells” into the next well, creating a 1:2 dilution. When completed, wells contained a serial serum dilution and a constant amount of viral lysate antigen, being 4 HA per well. cRBC reagent (0.5%, 50 μl) was added to each well, including negative control wells, which contained no HA. The assay was allowed to incubate for 45 minutes at room temperature, ensuring that the plate is not jostled. For determination, plates were tilted at a 70-degree angle for 5 minutes, and viewed on alight box.
HAI assays were performed with A-New Caledonia (H1N1), A-Panama (H3N2) and B-Hong Kong antigen as single test antigens and trivalent pools.
Female Brown Norway (BN) rats (n=10/group) were immunized by ID delivery using Microneedles (34 gauge needle inserted into a 3.5″ long catheter to an exposed needle length of 1.0 mm). ID delivery by Microneedles consisted of 2 bolus injections of 100 μl by hand to either side of the lower back of the rat, approximately 10 seconds in duration (each bolus), using an attached 1 cc syringe. Rats were immunized with either of two different doses of the 2003/2004 season of FLUZONE™ (Aventis Pasteur, Swiftwater, Pa.), for a total of 9µg (high dose) or 0.9µg (low dose) hemagglutinin (HA) per rat, 3µg or 0.3µg HA of each strain of influenza in the vaccine (A/New Calcdonia/20/99 H1N1, A/Panama/2007/99H3N2, and B/Hong Kong/1434/2002).
The rats were bled 21 days after immunization and their serum assayed for neutralizing antibody titres using the hemagglutination inhibition (HAI) assay, and for influenza-specific antibody titres by ELISA. Both assays were performed against the H3N2 strain of influenza in the FLUZONE™ formulation to characterize the immune response.

[3] = tested on: Influenza A/Panama/2007/99 (H3N2); assay: Influenza-specific ELISA titre after ID microneedle immunization of rats with FLUZONE +/- Tween 80; format: in vivo, Brown Norway rats; conditions: 5% Tween80 added to low or high dose FLUZONE
Protocol: Antibody response to FLUZONE™ was measured by coating an influenza antigen (Influenza APR834, purified/inactivated at 2 mg/mL from Charles River SPAFAS or Alternatively New Calcdonia, Panama or B-Hong Kong lysates from Biodesign Inc.) on a microtiter plate (96-well NUNC IMMUNO-PLATE™ with MAXISORP™ surface). The coating solution was approximately 3.8µg/mL of influenza protein in carbonate buffer (Sigma Chemical Co. Cat. C3041). The coating antigen was exposed to the Nunc plate for one hour at 37° C. The coating solution was discarded and replaced with a blocking solution (phosphate buffered saline with Tween™ 20 (PBS-TW20); Sigma Chemical Co. Cat. P-3563) and 5% w/v nonfat dry milk. The blocking solution was exposed to the plate surface for two hours at 37° C. The blocking solution was subsequently discarded.
Female Brown Norway (BN) rats (n=10/group) were immunized by ID delivery using Microneedles (34 gauge needle inserted into a 3.5″ long catheter to an exposed needle length of 1.0 mm). ID delivery by Microneedles consisted of 2 bolus injections of 100 μl by hand to either side of the lower back of the rat, approximately 10 seconds in duration (each bolus), using an attached 1 cc syringe. […]

[4] = tested on: trivalent test antigen (New Calcdonia, Panama and B-Hong Kong); parameters: species or system Hartley Guinea Pigs; conditions: guinea pig, in vivo
[5] = tested on: guinea pig skin; assay: Guinea pig erythema Draize scoring after ID delivery of excipients; format: in vivo, Hartley guinea pigs; conditions: Tween 80 5%, Deoxycholate 0.1%, D-sorbitol 5%, Lutrol 15%; without antigen, 50 ul per injection, 34 gauge 1.0 mm; immediate, 1 h and 24 h readings
Text: The methods of the invention provide fundamental principles and guidelines whereby optimum parameters may be determined for delivering immunogenic compositions to the dermal compartment (including epidermal and intradermal compartments) wherein the excipients have optimum adjuvant properties and the formulations of the invention have enhanced efficacy in comparison to when the same formulation is delivered using conventional modes of delivery, including intramuscular and subcutaneous delivery. The invention provides methods wherein the formulations of the invention have been screened to have optimum concentration ranges for delivery to the optimum depth of the intradermal compartment such that they have adjuvant properties, resulting in one or more of the following properties: minimal to no skin irritation as determined and assessed using conventional modes of analysis of skin reactions using visual methods such as Draize scoring (For a typical draize scoring analysis see table below); minimal to no hemolysis as determined using standard methods known in the art, and enhanced immune response as measured by enhanced seroconversion and/or enhanced antibody titers.
Erythema Draize scores for various excipients were determined using procedures described in Section 5.4, above. In one study, Tween™ 80 (5%), Deoxycholate (0.1%), D-sorbitol (5%) or Lutrol™ (15%) was administered (50 μl per injection) without the antigen to Hartley guinea pigs using 34 gauge, 1.0 mm needles. […] Deeper administrations will be necessary for deoycholate to be used reliably at this concentration. From left to right, the reading immediately after administration, the one-hour reading and the 24-hour reading.

[6] = tested on: RBCs; assay: Hemolysis in blood of swine after ID Tween 80; format: in vivo, Yorkshire swine; conditions: 6 x 200 ul doses containing 5.0% Tween 80, 31 g x 1.5 mm needle, blood from systemic circulation
Protocol: Tween™ 80 Preferred concentrations avoid hemolysis: Surfactants/detergents can lyse RBCs. Blood from Yorkshire swine that received 6×200 ul doses containing 5.0% Tween™ 80 were collected. No hemolysis was observed was in blood taken immediately from the systemic circulation. A 31 g× 1.5 mm needle was used in the study.

[7] = tested on: intradermal tissue; assay: Excipient operating profile: maximum concentration with Draize score of 2 or less vs tissue depth (slope m)
Text: The preferred excipients of the invention have a common operating profile in the intradermal space defined by a slope (m) value of greater than 0.125. An exemplary profile for determining the optimal operating profile is depicted in FIG. 35. The slope identifies the change in maximum operating concentration as it relates to tissue depth within the intradermal compartment. […] The concentration of excipient at the first reference point is the highest concentration at the shallowest delivery depth that allows a draize score of 2 or less. […] The concentration of excipient at the second reference point is the highest concentration at the deepest delivery depth that allows a draize score of 2 or less. For example, the distance between the first and second delivery depth can be 2 mm apart and specifically 1 mm and 3 mm deliveries. The operating slope (m) can be described by the following formula: […]
Where C2 equals Cinfinity at D2
Where C1 equals maximum excipient concentration at D1 with a Draize score of 2 or less
Where Dn denotes delivery depth
Tween™ 80 matches the preferred excipient profile. FIG. 35 illustrates an excipient selected for the intradermal tissue according to the instant invention. Tween™ 80 has a profile similar to the “Excipient-A” in the illustration having a slope greater than 0.125. Whereby a 5% v/v soln of Tween™ 80 is at the maximum operating concentration at 1.0 mm depth, and can be used successfully at 10% v/v at the 3 mm depth.

[8] = tested on: swine skin

Compound: CCCCCCCC/C=C\CCCCCCCC(=O)OCCOCC(OCCO)C1OCC(OCCO)C1OCCO (centres unmarked) [Tween 80, polysorbate 80]
- immune response compared to commercial trivalent vaccine delivered IM ([1]; Tween 80 0.9% V/V with trivalent vaccine, 34 g x 1 mm needle, murine model): higher mean titers, higher median titers and higher seroconversion
- seroconversion ([1]; Tween 80 at 5% + FLUZONE, Balb/c mice, ELISA with PR8 test antigen): 100%
- Trend in immune response as indicated by ELISA signal (1:123 serum screening dilution) ([1]; excipient 0.1% w/v with FLUZONE): 0.829
- Trend in immune response as indicated by ELISA signal (1:123 serum screening dilution) ([1]; excipient 0.3% w/v with FLUZONE): 1.599
- Trend in immune response as indicated by ELISA signal (1:123 serum screening dilution) ([1]; excipient 0.9% w/v with FLUZONE): 2.647
- increase of mean HAI titre relative to ID delivery of FLUZONE alone ([2]; 5% Tween80 added to low or high dose FLUZONE, ID, rats, H3N2): 5 fold
- % Seroconversion (HAI Titre ≧ 10) ([2]; IDHigh (9 ug HA per rat)): 100%
- % Seroprotection (HAI Titre ≧ 40) ([2]; IDHigh (9 ug HA per rat)): 100%
- % Seroconversion (HAI Titre ≧ 10) ([2]; IDLow (0.9 ug HA per rat)): 100%
- % Seroprotection (HAI Titre ≧ 40) ([2]; IDLow (0.9 ug HA per rat)): 90%
- increase of mean ELISA titre relative to ID delivery of FLUZONE alone [3]: up to 15 fold
- hemagglutin specific titer vs FLUZONE alone ID and FLUZONE alone IM [4]: outperformed
- Erythema Draize scores (tolerability) [5]: reasonably well-tolerated
- hemolysis [6]: No hemolysis
- maximum operating concentration ([7]; 1.0 mm depth): 5 % v/v
- concentration that can be used successfully ([7]; 3 mm depth): 10 % v/v
- slope (maximum acceptable conc./tissue depth) ([7]; intradermal tissue, 1.0 mm vs 3 mm depth): greater than 0.125
- draize score ([8]; 2% Tween 80, 3.0 mm delivery, approximately 20-24 hours after administration, Yorkshire swine): 0.0
- tolerability in the ID space ([8]; 5% Tween 80, swine, 31 g 1.5 mm needle): well tolerated
- tolerability ([8]; 10%, delivered to 1-2 mm depth, Yorkshire swine): not well tolerated
- Erythema Draize scores (tolerability) ([8]; Tween 80 5%, Deoxycholate 0.1%, D-sorbitol 5%, Lutrol 15%, without antigen, 200 ul per injection, 31 gauge 1.5 mm, 1 h and 24 h readings): reasonably well-tolerated
- erythema ([8]; in vivo): moderate to severe erythema
- skin reactions as a function of needle depth ([8]; in vivo): improved with depth
